Results taken from BigSolDB 2.1.

O=C(O)CCCc1c[nH]c2ccccc12
solubility (mole fraction)
Conditions | 283.15 K | 288.15 K | 293.15 K | 298.15 K | 303.15 K | 308.15 K | 313.15 K | 318.15 K | 323.15 K
in 2-butanone | 0.123 | 0.139 | 0.152 | 0.168 | 0.185 | 0.198 | 0.218 | 0.24 | 0.264
in acetone | 0.22 | 0.24 | 0.257 | 0.274 | 0.291 | 0.315 | 0.339 | 0.365 | 0.399
in acetonitrile | 0.0411 | 0.0531 | 0.0654 | 0.0814 | 0.104 | 0.123 | 0.155 | 0.192 | 0.256
in dimethyl carbonate | 0.0194 | 0.022 | 0.0287 | 0.0354 | 0.0453 | 0.0535 | 0.0644 | 0.0827 | 0.101
in ethanol | 0.048 | 0.0557 | 0.0642 | 0.0753 | 0.0886 | 0.1 | 0.116 | 0.141 | 0.171
in ethyl acetate | 0.049 | 0.0582 | 0.0689 | 0.0808 | 0.0914 | 0.103 | 0.122 | 0.145 | 0.17
in ethyl lactate | 0.101 | 0.106 | 0.117 | 0.128 | 0.14 | 0.151 | 0.165 | 0.19 | 0.22
in isobutanol | 0.0213 | 0.0253 | 0.0315 | 0.0379 | 0.0477 | 0.0581 | 0.0697 | 0.0857 | 0.102
in isobutyl acetate | 0.0355 | 0.0429 | 0.0498 | 0.0572 | 0.0649 | 0.0736 | 0.0848 | 0.0958 | 0.11
in isopentanol | 0.0309 | 0.0348 | 0.0412 | 0.0505 | 0.0601 | 0.0725 | 0.0858 | 0.0985 | 0.116
in isopropanol | 0.0406 | 0.0494 | 0.0599 | 0.0724 | 0.0859 | 0.0984 | 0.112 | 0.128 | 0.143
in isopropyl acetate | 0.0492 | 0.0628 | 0.0711 | 0.0813 | 0.0905 | 0.101 | 0.11 | 0.124 | 0.149
in methanol | 0.0481 | 0.0562 | 0.0656 | 0.0777 | 0.0922 | 0.104 | 0.123 | 0.153 | 0.181
in methyl acetate | 0.0573 | 0.0623 | 0.0701 | 0.0812 | 0.0909 | 0.106 | 0.126 | 0.154 | 0.19
in n-butanol | 0.0362 | 0.0422 | 0.0495 | 0.0582 | 0.0688 | 0.0786 | 0.0961 | 0.112 | 0.134
in n-butyl acetate | 0.0582 | 0.0645 | 0.0726 | 0.0797 | 0.0885 | 0.0977 | 0.112 | 0.129 | 0.141
in n-pentanol | 0.0362 | 0.0408 | 0.0486 | 0.058 | 0.0674 | 0.0764 | 0.0929 | 0.108 | 0.124
in n-propanol | 0.0385 | 0.0446 | 0.0534 | 0.0605 | 0.0727 | 0.0863 | 0.0994 | 0.112 | 0.139
in sec-butanol | 0.0417 | 0.0486 | 0.0582 | 0.0692 | 0.0829 | 0.0964 | 0.111 | 0.13 | 0.163
